Assay results from PMC11280325, “Design, Synthesis, and Characterization of Novel Thiazolidine-2,4-Dione-Acridine Hybrids as Antitumor Agents” (Molecules, 2024).
Counter-ions that a name gives are not always drawn.

Experiments:
[1] = test system: PATU; assay: MTT assay, PATU 8902; assay type: cell-based, human; details: pancreas adenocarcinoma, 48 h incubation
Method: (§1) The human cancer cell lines HeLa (cervical adenocarcinoma), HCT116 (colorectal adenocarcinoma), A2780 (human ovarian adenocarcinoma), A2780cis (human ovarian adenocarcinoma cisplatin-resistant), Jurkat (acute T-lymphoblastic leukemia), and Hep G2 (hepatocellular carcinoma) were cultured in an RPMI 1640 growth medium (Biosera, Kansas City, MO, USA). The cancer cell lines MDA-MB-231 (triple-negative breast adenocarcinoma), A2058 (human melanoma), U87 (human glioblastoma), PATU 8902 (pancreas adenocarcinoma), and A549 (human lung adenocarcinoma) were cultured in a DMEM medium (Biosera, Kansas City, MO, USA). The media were supplemented with 10% fetal bovine serum (FBS) (Invitrogen, Carlsbad, CA, USA) and 1× HyClone™ Antibiotic/Antimycotic Solution (GE Healthcare, Piscataway, NJ, USA).
(§2) To evaluate the IC50 (half-maximal inhibitory concentration) and confirm the antiproliferative activity of the tested substances, we employed the colorimetric MTT assay (3-(4,5-dimethylthiazol-2-yl)-2,5-diphenyltetrazolium bromide) (Sigma-Aldrich Chemie, Steinheim, Germany). The cell lines were seeded in 96-well plates at a density of 5 × 10^3 to 10 × 10^3 cells per well. After 24 h, the tested substances, dissolved in the cultivation medium, were added to the cells at final concentrations of 5, 10, 20, and 50 µmol/L. The cells were then incubated for 48 h under standard cultivation conditions. Following the incubation period, MTT was added to each well. The MTT was metabolized by the cells into insoluble formazan crystals, which were subsequently dissolved by adding 100 µL of 10% SDS. After another 24 h, the absorbance was measured at a wavelength of 540 nm using the automated Cytation™ 3 Cell Imaging Multi-Mode Reader (Biotek, Winooski, VT, USA). The experiments were performed in at least three independent repetitions. IC50 values were calculated using a nonlinear regression method.

[2] = test system: HeLa; assay: MTT assay, HeLa; assay type: cell-based, human; details: cervical adenocarcinoma, 48 h incubation
Method: as §1, §2

[3] = test system: HCT116; assay: MTT assay, HCT116; assay type: cell-based, human; details: colorectal adenocarcinoma, 48 h incubation
Method: as §1, §2

[4] = test system: A2058; assay: MTT assay, A2058; assay type: cell-based; details: human melanoma, 48 h incubation
Method: as §1, §2

[5] = test system: A549; assay: MTT assay, A549; assay type: cell-based, human; details: lung adenocarcinoma, 48 h incubation
Method: as §1, §2

[6] = test system: Hep G2; assay: MTT assay, Hep G2; assay type: cell-based, human; details: hepatocellular carcinoma, 48 h incubation
Method: as §1, §2

[7] = test system: MCF-10A; assay: MTT assay, MCF-10A non-cancerous cells; assay type: cell-based, human; details: non-cancerous epithelial breast cells, 48 h incubation
Method: (§3) The non-cancerous cell line MCF-10A (human epithelial breast cells) was cultured in a DMEM F12 medium supplemented with 10% FBS (Invitrogen, Carlsbad, CA, USA), 1× HyClone™ Antibiotic/Antimycotic Solution (GE Healthcare, Piscataway, NJ, USA), insulin, hEGF, and hydrocortisone. The BJ-5ta cells (human dermal fibroblasts) were cultured in a DMEM-M199 4:1 medium mixture, supplemented with 10% FBS and hygromycin B (0.01 mg/mL). The cells were maintained under standard conditions with an atmosphere containing 5% CO2 at 37 °C. Cell viability, estimated by trypan blue exclusion, was consistently greater than 95% before each experiment.
as §2

[8] = test system: Bj-5ta; assay: MTT assay, BJ-5ta non-cancerous fibroblasts; assay type: cell-based, human; details: non-cancerous dermal fibroblasts, 48 h incubation
Method: as §3, §2

[9] = test system: A2780; assay: MTT assay, A2780; assay type: cell-based, human; details: ovarian adenocarcinoma, 48 h incubation
Method: as §1, §2

IC50 [2]	IC50 [3]	IC50 [5]	IC50 [9]	Structure (SMILES)	IC50 [1]	IC50 [4]	IC50 [6]	IC50 [7]	IC50 [8]
17.7 ± 4.04 µM	13.1 ± 2.3 µM	17 ± 1.35 µM	> 50 µM	O=C(COc1ccc(/C=C2\SC(=O)N(Cc3c4ccccc4nc4ccccc34)C2=O)cc1)Nc1ccccc1 [7a·2HCl, 2-(4-{[(5Z)-3-[(Acridin-9-yl)methyl]-2,4-dioxo-1,3-thiazolidin-5-ylidene]methyl}phenoxy)-N-phenylacetamide dihydrochloride]	> 50 µM	> 50 µM	> 50 µM	17.6 ± 4.3 µM	29.9 ± 7.2 µM
6.11 ± 1.2 µM	17.4 ± 1.74 µM	21.9 ± 3.35 µM	> 50 µM	COc1cc(NC(=O)COc2ccc(/C=C3\SC(=O)N(Cc4c5ccccc5nc5ccccc45)C3=O)cc2)cc(OC)c1 [7b·2HCl, 2-(4-{[(5Z)-3-[(Acridin-9-yl)methyl]-2,4-dioxo-1,3-thiazolidin-5-ylidene]methyl}phenoxy)-N-(3,5-dimethoxyphenyl)acetamide dihydrochloride]	> 50 µM	> 50 µM	> 50 µM	11.3 ± 2.05 µM	34.5 ± 5.5 µM
21.4 ± 5.8 µM	16.9 ± 1.75 µM	> 50 µM	> 50 µM	COc1cc(NC(=O)COc2ccc(/C=C3\SC(=O)N(Cc4c5ccccc5nc5ccccc45)C3=O)cc2)cc(OC)c1OC [7c·2HCl, 2-(4-{[(5Z)-3-[(Acridin-9-yl)methyl]-2,4-dioxo-1,3-thiazolidin-5-ylidene]methyl}phenoxy)-N-(3,4,5-trimethoxyphenyl)acetamide dihydrochloride]	> 50 µM	> 50 µM	> 50 µM	> 50 µM	> 50 µM
4.55 ± 0.35 µM	8.6 ± 2.9 µM	> 50 µM	> 50 µM	O=C(COc1ccc(/C=C2\SC(=O)N(Cc3c4ccccc4nc4ccccc34)C2=O)cc1)Nc1ccc([N+](=O)[O-])cc1 [7d·2HCl, 2-(4-{[(5Z)-3-[(Acridin-9-yl)methyl]-2,4-dioxo-1,3-thiazolidin-5-ylidene]methyl}phenoxy)-N-(4-nitrophenyl)acetamide dihydrochloride]	> 50 µM	> 50 µM	> 50 µM	> 50 µM	> 50 µM
6.9 ± 0.2 µM	15.2 ± 3.4 µM	34 ± 6.05 µM	> 50 µM	O=C(COc1ccc(/C=C2\SC(=O)N(Cc3c4ccccc4nc4ccccc34)C2=O)cc1)Nc1cccc(C(F)(F)F)c1 [7f·2HCl, 2-(4-{[(5Z)-3-[(Acridin-9-yl)methyl]-2,4-dioxo-1,3-thiazolidin-5-ylidene]methyl}phenoxy)-N-[3-(trifluoromethyl)phenyl]acetamide dihydrochloride]	9.82 ± 1.92 µM	> 50 µM	27.4 ± 5.9 µM	7.7 ± 1.5 µM	39.5 ± 6.5 µM
42.6 ± 0.75 µM	> 50 µM	> 50 µM		O=C(COc1ccc(/C=C2\SC(=O)N(Cc3cccc4cc5ccccc5nc34)C2=O)cc1)Nc1ccccc1 [8a·HCl, 2-(4-{[(5Z)-3-[(Acridin-4-yl)methyl]-2,4-dioxo-1,3-thiazolidin-5-ylidene]methyl}phenoxy)-N-phenylacetamide hydrochloride]	> 50 µM	> 50 µM	> 50 µM		> 50 µM
> 50 µM	> 50 µM	> 50 µM		O=C(COc1ccc(/C=C2\SC(=O)N(Cc3cccc4cc5ccccc5nc34)C2=O)cc1)Nc1ccc([N+](=O)[O-])cc1 [8d·HCl, 2-(4-{[(5Z)-3-[(Acridin-4-yl)methyl]-2,4-dioxo-1,3-thiazolidin-5-ylidene]methyl}phenoxy)-N-(4-nitrophenyl)acetamide hydrochloride]	> 50 µM	> 50 µM	> 50 µM		> 50 µM
> 50 µM	> 50 µM	> 50 µM		O=C(COc1ccc(/C=C2\SC(=O)N(Cc3cccc4cc5ccccc5nc34)C2=O)cc1)Nc1ccccc1C(F)(F)F [8e·HCl, 2-(4-{[(5Z)-3-[(Acridin-4-yl)methyl]-2,4-dioxo-1,3-thiazolidin-5-ylidene]methyl}phenoxy)-N-[2-(trifluoromethyl)phenyl]acetamid hydrochloride]	> 50 µM	> 50 µM	> 50 µM		> 50 µM
> 50 µM	> 50 µM	> 50 µM		O=C(COc1ccc(/C=C2\SC(=O)N(Cc3cccc4cc5ccccc5nc34)C2=O)cc1)Nc1cccc(C(F)(F)F)c1 [8f·HCl, 2-(4-{[(5Z)-3-[(Acridin-4-yl)methyl]-2,4-dioxo-1,3-thiazolidin-5-ylidene]methyl}phenoxy)-N-[3-(trifluoromethyl)phenyl]acetamide hydrochloride]	> 50 µM	> 50 µM	> 50 µM		> 50 µM
> 50 µM	> 50 µM	> 50 µM		COc1cc(/C=C2\SC(=O)N(Cc3cccc4cc5ccccc5nc34)C2=O)ccc1OCC(=O)Nc1ccccc1 [13a·HCl, 2-(4-{[(5Z)-3-[(Acridin-4-yl)methyl]-2,4-dioxo-1,3-thiazolidin-5-ylidene]methyl}-2-methoxyphenoxy)-N-phenylacetamide hydrochloride]	> 50 µM	> 50 µM	> 50 µM		> 50 µM
45.5 ± 2.9 µM	> 50 µM	> 50 µM		COc1cc(NC(=O)COc2ccc(/C=C3\SC(=O)N(Cc4cccc5cc6ccccc6nc45)C3=O)cc2OC)cc(OC)c1 [13b·HCl, 2-(4-{[(5Z)-3-[(Acridin-4-yl)methyl]-2,4-dioxo-1,3-thiazolidin-5-ylidene]methyl}-2-methoxyphenoxy)-N-(3,5-dimethoxyphenyl)acetamide hydrochloride]	> 50 µM	> 50 µM	> 50 µM		> 50 µM
> 50 µM	> 50 µM	> 50 µM		COc1cc(/C=C2\SC(=O)N(Cc3cccc4cc5ccccc5nc34)C2=O)ccc1OCC(=O)Nc1ccc([N+](=O)[O-])cc1 [13d·HCl, 2-(4-{[(5Z)-3-[(Acridin-4-yl)methyl]-2,4-dioxo-1,3-thiazolidin-5-ylidene]methyl}-2-methoxyphenoxy)-N-(4-nitrophenyl)acetamide hydrochloride]	> 50 µM	> 50 µM	> 50 µM		> 50 µM
13.7 ± 4.5 µM	14.5 ± 3.4 µM	42.8 ± 5.4 µM		COc1cc(/C=C2\SC(=O)N(Cc3cccc4cc5ccccc5nc34)C2=O)ccc1OCC(=O)Nc1ccccc1C(F)(F)F [13e·HCl, 2-(4-{[(5Z)-3-[(Acridin-4-yl)methyl]-2,4-dioxo-1,3-thiazolidin-5-ylidene]methyl}-2-methoxyphenoxy)-N-[2-(trifluoromethyl)phenyl]acetamide hydrochloride]	39.8 ± 7.1 µM	> 50 µM	> 50 µM		> 50 µM
12.3 ± 4.9 µM	14.3 ± 3.2 µM	38.2 ± 7.35 µM		COc1cc(/C=C2\SC(=O)N(Cc3cccc4cc5ccccc5nc34)C2=O)ccc1OCC(=O)Nc1cccc(C(F)(F)F)c1 [13f·HCl, 2-(4-{[(5Z)-3-[(Acridin-4-yl)methyl]-2,4-dioxo-1,3-thiazolidin-5-ylidene]methyl}-2-methoxyphenoxy)-N-[3-(trifluoromethyl)phenyl]acetamide hydrochloride]	43.7 ± 5.8 µM	> 50 µM	> 50 µM		> 50 µM
34.7 ± 6.4 µM	> 50 µM	> 50 µM		COc1cc(/C=C2\SC(=O)N(Cc3cccc4cc5ccccc5nc34)C2=O)ccc1OCC(=O)Nc1cc(C(F)(F)F)cc(C(F)(F)F)c1 [13g·HCl, 2-(4-{[(5Z)-3-[(Acridin-4-yl)methyl]-2,4-dioxo-1,3-thiazolidin-5-ylidene]methyl}-2-methoxyphenoxy)-N-[3,5-bis(trifluoromethyl)phenyl]acetamide hydrochloride]	> 50 µM	> 50 µM	> 50 µM		> 50 µM
